From ChEMBL document CHEMBL5584311, “Antiviral Chlorinated Drimane Meroterpenoids from the Fungus Talaromyces pinophilus LD-7 and Their Biosynthetic Pathway” (J Nat Prod, 2024)

Key:
[1] = test system: Vesicular stomatitis virus; assay: Antiviral activity against Vesicular stomatitis virus infected in African green monkey Vero cells assessed as inhibition of cytopathic effect pre-infected with cells for 12 hrs followed by viral infection and measured after 24 hrs by fluorescence based CPE reduction method; format: functional, organism-based
Hepatitis C virus = assay: Antiviral activity against HCV infected in human Huh7.5 cells stably expressing firefly luciferase by microplate luminometer based analysis; format: functional, organism-based, Hepacivirus hominis
HL-60 = assay: Cytotoxicity against human HL-60 cells; format: functional
K562 = assay: Cytotoxicity against human K562 cells; format: functional
MGC-803 = assay: Cytotoxicity against human MGC-803 cells; format: functional
Bel-7402 = assay: Cytotoxicity against human Bel-7402 cells; format: functional
SH-SY5Y = assay: Cytotoxicity against human SH-SY5Y cells; format: functional
HCT-116 = assay: Cytotoxicity against human HCT-116 cells; format: functional
MDA-MB-231 = assay: Cytotoxicity against human MDA-MB-231 cells; format: functional
A549 = assay: Cytotoxicity against human A549 cells; format: functional
[2] = Cytotoxicity against human MCF7/ADM cells; format: functional
[3] = Cytotoxicity against human HO-8910 cells; format: functional
U-87 MG = assay: Cytotoxicity against human U87 cells; format: functional, U-87MG ATCC
NCI-H1975 = assay: Cytotoxicity against human NCI-H1975 cells; format: functional

| Structure (SMILES) | IC50 [1] [nM] | further results |
| --- | --- | --- |
| CC(=O)O[C@@H]1c2c3c(c(Cl)c(O)c2C(=O)O[C@@H]1C)O[C@]1(C)CCC(=O)[C@]2(C)CC=C(C(C)C)O[C@]12C3 | 280 |  |
| CC(C)[C@@]12CC[C@]3(C)[C@]4(Cc5c(cc(O)c6c5[C@@H](O)[C@@H](C)OC6=O)O[C@]4(C)CC[C@]3(O)O1)O2 | 430 |  |
| CC(C)[C@@]12CC[C@]3(C)[C@]4(Cc5c6c(c(O)c(Cl)c5O[C@]4(C)CC[C@]3(O)O1)C(=O)O[C@H](C)C6)O2 | 180 |  |
| CC(C)[C@]12CC[C@@]3(C)[C@H](CC[C@@]4(C)Oc5cc(O)c6c(c5C[C@@]43O1)C[C@@H](C)OC6=O)O2 | 910 |  |
| CC(=O)O[C@@H]1c2c3c(c(Cl)c(O)c2C(=O)O[C@@H]1C)O[C@]1(C)CC[C@]2(O)O[C@@]4(C(C)C)CC[C@]2(C)[C@]1(C3)O4 | 260 |  |
| NC(=O)c1ncn([C@@H]2O[C@H](CO)[C@@H](O)[C@H]2O)n1 [RIBAVIRIN] | 46 |  |
| C[C@@H]1Cc2c3c(cc(O)c2C(=O)O1)O[C@]1(C)CC[C@H]2C(C)(C)C(=O)CC[C@]2(C)[C@H]1C3 | 23 |  |
| CC(=O)O[C@@H]1c2c3c(cc(O)c2C(=O)O[C@@H]1C)O[C@]1(C)CCC(=O)[C@]2(C)CC=C(C(C)C)O[C@]12C3 | 320 |  |
| CC1=C(O)C(=O)[C@@]23C(C)CC[C@@H]2[C@H](C)CO[C@]32Oc3cc(O)cc(CO)c3C=C12 (stereo not given in full) |  | IC50 (Hepatitis C virus): 9500 nM |
| C[C@@H]1Cc2c3c(c(Cl)c(O)c2C(=O)O1)O[C@]1(C)CC[C@]2(O)C(C)(C)[C@@]4(O)CC[C@]2(C)[C@]1(C3)O4 | 83 |  |
| CC(C)C1=CC[C@@]2(C)C(=O)CC[C@@]3(C)Oc4cc(O)c5c(c4C[C@@]32O1)[C@@H](O)[C@@H](C)OC5=O | 970 |  |
| CC(=O)O[C@@H]1c2c3c(cc(O)c2C(=O)O[C@@H]1C)O[C@]1(C)CC[C@]2(O)C(C)(C)[C@@]4(O)CC[C@]2(C)[C@]1(C3)O4 | 190 |  |
| C[C@@H]1Cc2c3c(cc(O)c2C(=O)O1)O[C@]1(C)CCC[C@](C)([C@H]2C[C@@H](O)C2(C)C)[C@H]1C3 |  | CC50 (HL-60): 3350 nM; CC50 (K562): 3350 nM; CC50 (MGC-803): 3350 nM; CC50 (Bel-7402): 3350 nM; CC50 (SH-SY5Y): 3350 nM; CC50 (HCT-116): 3350 nM; CC50 (MDA-MB-231): 3350 nM; CC50 (A549): 3350 nM; CC50 [2]: 3350 nM; CC50 [3]: 3350 nM; CC50 (U-87 MG): 3350 nM; CC50 (NCI-H1975): 3350 nM |
| CC(C)[C@]12CC[C@@]3(C)[C@H](CC[C@@]4(C)Oc5c(Cl)c(O)c6c(c5C[C@@]43O1)C[C@@H](C)OC6=O)O2 | 18 |  |
| CC(=O)O[C@@H]1c2c3c(cc(O)c2C(=O)O[C@@H]1C)O[C@]1(C)CC[C@@H]2O[C@@]4(C(C)C)CC[C@]2(C)[C@]1(C3)O4 | 490 |  |
| C[C@@H]1Cc2c3c(cc(O)c2C(=O)O1)O[C@]1(C)CC[C@]2(O)C(C)(C)[C@@]4(O)CC[C@]2(C)[C@]1(C3)O4 | 130 |  |
| CC(=O)O[C@@H]1c2c3c(c(Cl)c(O)c2C(=O)O[C@@H]1C)O[C@]1(C)CC[C@@H]2O[C@@]4(C(C)C)CC[C@]2(C)[C@]1(C3)O4 | 82 |  |
| C[C@@H]1Cc2c3c(c(Cl)c(O)c2C(=O)O1)O[C@]1(C)CC[C@H]2C(C)(C)C(=O)CC[C@]2(C)[C@@]1(O)C3 | 15 |  |
| CC(=O)O[C@@H]1c2c3c(cc(O)c2C(=O)O[C@@H]1C)O[C@]1(C)CC[C@]2(O)O[C@@]4(C(C)C)CC[C@]2(C)[C@]1(C3)O4 | 570 |  |
